Where two headings read alike, the source gives them in different places.

In one experiment the target is T1, KRAS G12C::SOS1 (Homo sapiens, UniProt Q07889).
T1 construct: purchased CISBIO 64KRASG12PEH
T1 sequence (Q07889 1-1333): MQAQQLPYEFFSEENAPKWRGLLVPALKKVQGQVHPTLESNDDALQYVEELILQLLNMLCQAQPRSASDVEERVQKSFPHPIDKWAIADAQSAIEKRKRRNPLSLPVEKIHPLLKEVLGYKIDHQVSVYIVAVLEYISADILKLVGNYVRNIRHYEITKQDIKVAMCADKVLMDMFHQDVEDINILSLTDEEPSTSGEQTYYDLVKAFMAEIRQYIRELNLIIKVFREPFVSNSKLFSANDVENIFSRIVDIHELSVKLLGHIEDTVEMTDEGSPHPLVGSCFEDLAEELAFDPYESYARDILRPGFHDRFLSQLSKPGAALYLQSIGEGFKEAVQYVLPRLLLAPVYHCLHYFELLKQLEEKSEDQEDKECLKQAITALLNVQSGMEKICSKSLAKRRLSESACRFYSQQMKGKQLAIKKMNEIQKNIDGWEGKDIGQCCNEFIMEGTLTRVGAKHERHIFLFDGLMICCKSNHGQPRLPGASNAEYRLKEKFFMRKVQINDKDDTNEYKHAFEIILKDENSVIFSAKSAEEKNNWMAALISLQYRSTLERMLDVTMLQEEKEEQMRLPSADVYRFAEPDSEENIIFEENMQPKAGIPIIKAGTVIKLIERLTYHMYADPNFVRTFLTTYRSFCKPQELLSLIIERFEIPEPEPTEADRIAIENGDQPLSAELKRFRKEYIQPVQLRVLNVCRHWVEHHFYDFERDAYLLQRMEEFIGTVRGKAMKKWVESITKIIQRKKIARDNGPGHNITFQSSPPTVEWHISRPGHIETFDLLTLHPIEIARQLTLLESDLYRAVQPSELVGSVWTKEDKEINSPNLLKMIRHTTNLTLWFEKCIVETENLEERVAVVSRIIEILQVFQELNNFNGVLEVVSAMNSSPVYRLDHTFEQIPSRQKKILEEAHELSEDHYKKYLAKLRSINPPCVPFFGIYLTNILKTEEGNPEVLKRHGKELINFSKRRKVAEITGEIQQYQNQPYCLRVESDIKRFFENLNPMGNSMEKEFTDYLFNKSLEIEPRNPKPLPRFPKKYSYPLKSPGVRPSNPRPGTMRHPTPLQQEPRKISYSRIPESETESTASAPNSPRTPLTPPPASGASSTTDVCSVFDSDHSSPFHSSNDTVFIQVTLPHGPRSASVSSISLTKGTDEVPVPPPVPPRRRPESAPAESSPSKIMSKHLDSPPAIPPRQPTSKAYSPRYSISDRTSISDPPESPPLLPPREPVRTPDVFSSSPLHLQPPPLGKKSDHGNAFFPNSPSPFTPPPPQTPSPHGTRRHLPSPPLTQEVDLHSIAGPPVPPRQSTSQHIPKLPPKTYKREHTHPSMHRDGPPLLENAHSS
The experiment is described as follows: KRAS G12C::SOS1 protein-protein interaction (PPI) inhibition assay (HTRF). Format: binding. A digest of the protocol:
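Compounds, at eight 3-fold dilutions from 3 µM, were mixed with GTP-loaded Tag1-KRAS G12C, Tag2-SOS1 and a terbium-cryptate donor plus XL665 acceptor antibody pair. After 2 h at room temperature, time-resolved FRET reported the KRAS–SOS1 interaction.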

In experiment [1] the test system is lung cancer cell line NCI-H358 having the KRAS G12C variant. The experiment can be described thus: Cancer cell growth inhibition, 3D spheroids (CellTiter-Glo 3D). The note with it: Homo sapiens, NCI-H358, 120 h; 3D spheroids, 0.002-10 µM, 5 days; read-out: H358 cell viability. Format: cell-based. The procedure:
Thereafter, the plate with the cells cultured was adapted to room temperature for 10 minutes, and then 50 µL of CellTiter-Glo® 3D Cell Viability Assay (PROMEGA, G9683) solution was dispensed, and reacted on a horizontal stirrer at a speed of 300 RPM for 30 minutes to induce the cell lysis. […] Thereafter, based on the measured values, the degree of cell growth in the well treated with each compound was calculated when the final cell density value of the well not treated with the test substance was set to 100%.

A further experiment addresses T2, SOS1 (Homo sapiens, UniProt Q07889).
T2 construct: HIS-SOS1cat (160 nM; Cytoskeleton, US); His (N); purchased Cytoskeleton
T2 sequence (Q07889 564-1049 limits assumed): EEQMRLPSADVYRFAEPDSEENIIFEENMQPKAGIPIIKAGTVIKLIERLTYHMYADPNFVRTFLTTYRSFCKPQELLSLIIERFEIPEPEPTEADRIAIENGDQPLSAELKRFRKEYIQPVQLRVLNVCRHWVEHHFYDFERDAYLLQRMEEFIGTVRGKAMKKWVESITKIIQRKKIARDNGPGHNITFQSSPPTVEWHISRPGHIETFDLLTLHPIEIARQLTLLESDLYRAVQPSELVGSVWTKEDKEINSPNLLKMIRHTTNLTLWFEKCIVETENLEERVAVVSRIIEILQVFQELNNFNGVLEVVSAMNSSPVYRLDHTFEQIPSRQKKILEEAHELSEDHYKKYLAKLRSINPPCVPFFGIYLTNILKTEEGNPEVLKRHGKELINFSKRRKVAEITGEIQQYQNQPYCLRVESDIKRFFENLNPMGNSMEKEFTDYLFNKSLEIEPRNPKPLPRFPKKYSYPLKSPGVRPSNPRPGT
The experiment can be described thus: SOS-catalyzed nucleotide exchange assay (HTRF, SOS1-mediated GTP loading of KRAS G12D). It is filed as biochemical. For orientation: In TR-FRET formats the signal depends on donor and acceptor labels being close together.

[2] abbreviates: 8 concentrations from 3 µM, three replicates, read-out: KRAS G12C::SOS1 PPI.
Setting [3] is: GST-KRAS G12D, HIS-SOS1cat, compound 128 pM to 10 µM, read-out: SOS-catalyzed nucleotide exchange assay.

Consider `C[C@@H](NC(=O)c1cc(C#N)c(=O)n(-c2cncc(-c3cnnn3C)c2)n1)c1cccc(C(F)(F)F)c1F` [Example 3-2, 5-cyano-N-{(1R)-1-[2-fluoro-3-(trifluoromethyl)phenyl]ethyl}-1-[5-(1-methyl-1H-1,2,3-triazol-5-yl)-3-pyridyl]-6-oxo-1,6-dihydropyridazine-3-carboxamide], for which the values for the IC50 (at KRAS G12C::SOS1 (setting [2]); in experiment [1]; at SOS1 (setting [3])) were 0.05 to 0.15 µM, less than 1 µM and 0.05 to 0.15 µM, respectively.
As to `Cc1cc(C(=O)N[C@H](C)c2cccc(C(F)(F)CO)c2F)nn(-c2cncc(-c3cnnn3C3CC3)c2)c1=O` [Example 1-40, N-{(R)-1-[3-(1,1-difluoro-2-hydroxyethyl)-2-fluorophenyl]ethyl}-1-[5-(1-cyclopropyl-1H-1,2,3-triazol-5-yl)-3-pyridyl]-5-methyl-6-oxo-1,6-dihydropyridazine-3-carboxamide], the IC50 on KRAS G12C::SOS1 (setting [2]) was less than 0.05 µM; in experiment [1], less than 1 µM; at SOS1 (setting [3]) it was less than 0.05 µM.
For `C[C@@H](NC(=O)c1ccc(=O)n(-c2cncc(-c3cnnn3C)c2)n1)c1cc(N)cc(C(F)F)c1` [Example 2, N-[(1R)-1-[3-amino-5-(difluoromethyl)phenyl]ethyl]-1-[5-(3-methyltriazol-4-yl)-3-pyridyl]-6-oxo-pyridazine-3-carboxamide], the results for the IC50 (at KRAS G12C::SOS1; in experiment [1]; against SOS1) were 0.05 to 0.15 µM, less than 1 µM and 0.05 to 0.15 µM, respectively.
On to `C[C@@H](NC(=O)c1ccc(=O)n(-c2cnnc(-c3cnnn3C)c2)n1)c1cccc(C(F)(F)CO)c1F` [Example 1-37, N-{(1R)-1-[3-(1,1-difluoro-2-hydroxyethyl)-2-fluoro-phenyl]ethyl}-6'-(1-methyl-1H-1,2,3-triazol-5-yl)-6-oxo-6H-[1,4'-bipyridazine]-1,6-dihydro-3-carboxamide], for which the IC50 was 0.05 to 0.15 µM on KRAS G12C::SOS1 (setting [2]), more than 3 µM in experiment [1] and 0.05 to 0.15 µM on SOS1 (setting [3]).
As for `C[C@@H](NC(=O)c1ccc(=O)n(-c2cncc(-c3cnnn3C)c2)n1)c1cc(N)cc(C(F)(F)F)c1F` [Example 2-1, N-[(1R)-1-[5-amino-2-fluoro-3-(trifluoromethyl)phenyl]ethyl]-1-[5-(3-methyltriazol-4-yl)-3-pyridyl]-6-oxo-pyridazine-3-carboxamide], the results for the IC50 (on KRAS G12C::SOS1 (setting [2]); in experiment [1]; at SOS1 (setting [3])) were less than 0.05 µM, less than 1 µM and less than 0.05 µM, respectively.
As to `CCn1nncc1-c1cncc(-n2nc(C(=O)N[C@H](C)c3cccc(C(F)(F)F)c3F)ccc2=O)c1` [Example 1-12, N-[(1R)-1-[2-fluoro-3-(trifluoromethyl)phenyl]ethyl]-1-[5-(3-ethyltriazol-4-yl)-3-pyridyl]-6-oxo-pyridazine-3-carboxamide], the IC50 is 0.05 to 0.15 µM at KRAS G12C::SOS1 (setting [2]), less than 1 µM in experiment [1] and less than 0.05 µM on SOS1 (setting [3]).
`C[C@@H](NC(=O)c1cc(C2=CCCCC2)c(=O)n(-c2cncc(-c3cnnn3C)c2)n1)c1cccc(C(F)(F)F)c1F` [Example 1-64, N-{(R)-1-[2-fluoro-3-(trifluoromethyl)phenyl]ethyl}-5-(1-cyclohexen-1-yl)-1-[5-(1-methyl-1H-1,2,3-triazol-5-yl)-3-pyridyl]-6-oxo-1,6-dihydropyridazine-3-carboxamide]: the IC50 on KRAS G12C::SOS1 (setting [2]) was more than 0.15 µM; in experiment [1] it was 1 to 3 µM; on SOS1 (setting [3]), more than 0.15 µM.
As to `C[C@@H](NC(=O)c1ccc(=O)n(-c2cncc(-c3cnnn3C)c2)n1)c1cc(N)cc(C(F)(F)F)c1` [Example 1-9, N-[(1R)-1-[3-amino-5-(trifluoromethyl)phenyl]ethyl]-1-[5-(3-methyltriazol-4-yl)-3-pyridyl]-6-oxo-pyridazine-3-carboxamide], the IC50 on KRAS G12C::SOS1 (setting [2]) was less than 0.05 µM; in experiment [1], less than 1 µM; on SOS1 (setting [3]), less than 0.05 µM.
`Cc1ncc(-n2nc(C(=O)N[C@H](C)c3cccc(C(F)(F)F)c3F)ccc2=O)cc1-c1cnnn1C` [Example 1-26, N-[(1R)-1-[2-fluoro-3-(trifluoromethyl)phenyl]ethyl]-1-[6-methyl-5-(3-methyltriazol-4-yl)-3-pyridyl]-6-oxo-pyridazine-3-carboxamide]: the IC50 on KRAS G12C::SOS1 (setting [2]) is 0.05 to 0.15 µM; in experiment [1], less than 1 µM; on SOS1 (setting [3]), 0.05 to 0.15 µM.

Values taken from patent EP4667464A1 (Cyrus Therapeutics Inc., priority 2023, dated 2024).
